Measured values as given in patent US9771369B2, “Compounds and methods for kinase modulation, and indications therefor” (Plexxikon Inc., priority 2014, dated 2017).

Target: c-Kit kinase (Homo sapiens (Human), UniProt P10721)
Experiment: c-Kit biochemical assay (AlphaScreen kinase activity)
Procedure, shortened: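 AlphaScreen: c-Kit phosphorylates biotin-(E4Y)3 (100 nM) at 10 μM ATP, pH 7.2 HEPES buffer with Mg/Mn, 5% DMSO, 1 h room temperature; streptavidin donor and PY30 acceptor beads detect product. Second format: 100 μM ATP, 30 nM biotin-(E4Y)10, pH 7.5. IC50 from 8-point 1:3 dilution curves.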

Chain of c-Kit kinase (P10721 26-976): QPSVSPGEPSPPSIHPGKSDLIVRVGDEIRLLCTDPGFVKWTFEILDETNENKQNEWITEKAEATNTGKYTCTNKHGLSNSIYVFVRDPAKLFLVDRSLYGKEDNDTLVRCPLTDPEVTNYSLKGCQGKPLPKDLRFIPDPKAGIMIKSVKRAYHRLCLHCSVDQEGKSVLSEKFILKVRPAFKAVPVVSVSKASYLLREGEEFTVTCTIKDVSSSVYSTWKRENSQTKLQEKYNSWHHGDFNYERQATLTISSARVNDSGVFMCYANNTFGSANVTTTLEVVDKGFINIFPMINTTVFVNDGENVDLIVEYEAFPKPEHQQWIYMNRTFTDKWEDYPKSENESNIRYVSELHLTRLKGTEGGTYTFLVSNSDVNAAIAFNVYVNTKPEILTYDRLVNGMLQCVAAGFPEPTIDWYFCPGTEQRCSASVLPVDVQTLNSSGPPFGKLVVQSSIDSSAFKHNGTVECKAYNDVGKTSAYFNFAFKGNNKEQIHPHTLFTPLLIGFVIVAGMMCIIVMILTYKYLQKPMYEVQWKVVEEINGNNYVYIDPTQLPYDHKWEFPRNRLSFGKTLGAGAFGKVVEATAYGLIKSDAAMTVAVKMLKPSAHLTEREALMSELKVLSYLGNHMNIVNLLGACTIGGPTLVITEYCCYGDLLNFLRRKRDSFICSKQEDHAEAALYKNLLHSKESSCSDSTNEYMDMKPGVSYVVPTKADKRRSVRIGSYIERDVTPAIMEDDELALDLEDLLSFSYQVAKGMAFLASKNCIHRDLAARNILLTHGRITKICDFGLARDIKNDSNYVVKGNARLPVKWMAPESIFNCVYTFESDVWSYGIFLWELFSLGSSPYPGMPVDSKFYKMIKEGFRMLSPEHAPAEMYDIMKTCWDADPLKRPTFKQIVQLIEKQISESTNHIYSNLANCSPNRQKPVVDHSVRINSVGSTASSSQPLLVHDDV

Row | Compound | IC50 [µM]
1 | Cc1nc(C2(C)CCN(c3ncnc4[nH]c(-c5ccc(NS(C)(=O)=O)cc5)cc34)CC2)[nH]c1-c1ccc(C(F)F)cc1 [P-3252, N-[4-[4-[4-[5-[4-(difluoromethyl)phenyl]-4-methyl-1H-imidazol-2-yl]-4-methyl-1-piperidyl]-7H-pyrrolo[2,3-d]pyrimidin-6-yl]phenyl]methanesulfonamide] | 0.0001 to 1
2 | Cc1nc(C2(C)CCN(c3ncnc4[nH]c(-c5ccc(C(N)=O)cc5)cc34)CC2)[nH]c1-c1ccc(OC(F)F)cc1 [P-3253, 4-[4-[4-[5-[4-(difluoromethoxy)phenyl]-4-methyl-1H-imidazol-2-yl]-4-methyl-1-piperidyl]-7H-pyrrolo[2,3-d]pyrimidin-6-yl]benzamide] | 0.0001 to 1
3 | Cc1nc(C2(C)CCN(c3ncnc4[nH]c(-c5ccc(NS(C)(=O)=O)cc5)cc34)CC2)[nH]c1-c1ccc(OC(F)F)cc1 [P-3254, N-[4-[4-[4-[5-[4-(difluoromethoxy)phenyl]-4-methyl-1H-imidazol-2-yl]-4-methyl-1-piperidyl]-7H-pyrrolo[2,3-d]pyrimidin-6-yl]phenyl]methanesulfonamide] | 0.0001 to 1
4 | Cc1nc(C2(C)CCN(c3ncnc4[nH]c(-c5ccc(C#N)nc5)cc34)CC2)[nH]c1-c1cccc(OC(F)F)c1 [P-3255, 5-[4-[4-[5-[3-(difluoromethoxy)phenyl]-4-methyl-1H-imidazol-2-yl]-4-methyl-1-piperidyl]-7H-pyrrolo[2,3-d]pyrimidin-6-yl]pyridine-2-carbonitrile] | 1 to 10
5 | COc1cccc(-c2[nH]c(C3(C)CCN(c4ncnc5[nH]c(-c6ccc(C#N)nc6)cc45)CC3)nc2C)c1 [P-3256, 5-[4-[4-[5-(3-methoxyphenyl)-4-methyl-1H-imidazol-2-yl]-4-methyl-1-piperidyl]-7H-pyrrolo[2,3-d]pyrimidin-6-yl]pyridine-2-carbonitrile] | 0.0001 to 1
